Experimental data from patent US8497283B2, “Autotaxin inhibitors” (Merck Patent GmbH, priority 2009, dated 2013).

target: T1, recombinant autotaxin (Homo sapiens, UniProt Q13822); assay: Autotaxin assay (Amplex Red fluorescence, LPC substrate); assay type: biochemical; conditions: percent of uninhibited control (100%) at 1E−05 M compound
T1 construct: made in house; host or cells: Hi5 insect cells (baculovirus)
Method: Autotaxin activity is measured indirectly by means of Amplex Red Reagent. In this course, Amplex Red is measured as fluorogenic indicator for generated H2O2. Autotaxin converts substrate lysophosphatidylcholine (LPC) to phosphocholine and lysophosphatidylic acid (LPA). After the conversion phosphocholine is reacted with alkaline phosphatase to obtain inorganic phosphate and choline. During the next step choline is oxidized with choline oxidase to yield betaine, whereby H2O2 is generated. H2O2 reacts with Amplex Red Reagent in the presence of peroxidase (Horseradish peroxidase) in an 1:1 stochiometry and yields highly fluorescent resorufin. The generated fluorescence is measured in a reaction-dependent kinetic mode in order to enable subtraction of fluorescence signals of possible other fluorescent compounds that are not part of the reaction from total measured fluorescence.
1.5 μl of a standard solution or of the compounds of the invention are dissolved in 20 mM Hepes pH 7.2 with maximally 7.7% DMSO in individual concentrations. The resulting solution is pre-incubated together with 10 μl (16 ng) of highly purified recombinant autotaxin in a black 384-hole microtiter plate for 30 min at 22° C.
Thereafter, the reaction is started through the addition of 5 μl L-a-lysophosphatidyl-choline (LPC), whereby the final concentration of LPC is 75 μM. The mixture is incubated for 90 min. at 37° C. After the incubation Amplex Red Reagent, peroxidase (Horseradish peroxidase) and choline oxidase are added. The fluorescence is immediately measured at a wavelength of 612 nm with an excitation wavelength of 485 nm in a “Tecan Ultra multimode” fluorescence reader. The activity of autotaxin is indirectly calculated via the amount of detected generated H2O2.
For IC50 analysis, ten serial 1:3 dilutions starting at 30 μM for each compound were run in duplicates.
IC50 values were calculated on normalized data. For normalization, control wells were added to each assay plate and the signal of uninhibited control wells was set to 100%, whereas the signal inhibited by 500 μM C14 LPA, (Avanti Polar Lipids, Cat#857120P) was set to 0%. Curves were fitted and IC50 values calculated by the following model using proprietory analysis software: Y=Bottom+(100−Bottom)/(1+10^((Log IC50−X)*HillSlope))
Where X is the logarithm of concentration. Y is the response;
Y starts at Bottom and goes to Top with a sigmoid shape.
Protein: Recombinant autotaxin (baculoviral Hi5 expression)
Substrate: L-a-lysophosphatidyl choline (chicken egg); Avanti Polar Lipids #830071P
Standard: C14 LPA, Avanti Polar Lipids, Cat#857120P
Detection Reagent Amplex Red Reagent; Invitrogen #A12222; dissolved in 1.923 ml of DMSO peroxidase Type VI-A (horseradish), Sigma #P6782; dissolved in 7.45 ml of test buffer, Choline Oxidase; Sigma #C5896; dissolved in 2.47 ml test buffer
Detection Reagent Mix: 1:100 dilution of Amplex Red Regent in test buffer
Test buffer: 200 mM Tris-HCl, Merck, Cat #1.08219, pH 7.9; 0.1% BSA, lipid free, Roche Cat#775835

% CTRL (1E−05) [%] | SMILES
66 | COc1ccccc1CNC(=O)c1[nH]nc2c1CCN(C(=O)c1ccc3[nH]nnc3c1)C2 [Compound 41, 6-(1H-Benzotriazole-5-carbonyl)-4,5,6,7-tetrahydro-2H-pyrazolo[3,4-c]pyridine-3-carboxylic acid 2-methoxy-benzylamide]
93 | O=C(Nc1ccc(C(F)(F)F)cc1)Nc1nc2ccc(C(=O)Nc3ccc4[nH]c(=O)oc4c3)cc2s1 [Compound 30, 2-[3-(4-Trifluoromethyl-phenyl)-ureido]-benzothiazole-6-carboxylic acid (2-oxo-2,3-dihydro-benzooxazol-6-yl)-amide]
88 | NC(=O)c1c(NC(=O)Nc2ccc(Cl)cc2)sc2c1CCN(Cc1ccccn1)C2 [Compound 18, 2-[3-(4-Chloro-phenyl)-ureido]-6-pyridin-2-ylmethyl-4,5,6,7-tetrahydro-thieno[2,3-c]pyridine-3-carboxylic acid amide]

same assay, conditions: ten serial 1:3 dilutions starting at 30 μM, duplicates; 75 μM LPC; values given as upper bounds

SMILES | IC50 [µM]
NC(=O)c1c(NC(=O)Cc2cccc(Cl)c2)sc2c1CCN(C(=O)c1ccc3[nH]nnc3c1)C2 [Compound 11, 6-(1H-Benzotriazole-5-carbonyl)-2-[2-(3-chloro-phenyl)-acetylamino]-4,5,6,7-tetrahydro-thieno[2,3-c]pyridine-3-carboxylic acid amide] | < 1
NC(=O)c1c(NC(=O)Cc2ccc(Cl)cc2F)sc2c1CCN(C(=O)CCc1ccccn1)C2 [Compound 24, 2-[2-(4-Chloro-2-fluoro-phenyl)-acetylamino]-6-(3-pyridin-2-yl-propionyl)-4,5,6,7-tetrahydro-thieno[2,3-c]pyridine-3-carboxylic acid amide] | < 10
NC(=O)c1c(NC(=O)Nc2ccc(C(F)(F)F)cc2)sc2c1CCN(C(=O)c1ccc3[nH]nnc3c1)C2 [Compound 3, 6-(1H-Benzotriazole-5-carbonyl)-2-[3-(4-trifluoromethyl-phenyl)-ureido]-4,5,6,7-tetrahydro-thieno[2,3-c]pyridine-3-carboxylic acid amide] | < 1
O=C(NCCc1ccc(Cl)cc1)c1[nH]nc2c1CCN(C(=O)c1ccc3[nH]nnc3c1)C2 [Compound 39, 6-(1H-Benzotriazole-5-carbonyl)-4,5,6,7-tetrahydro-2H-pyrazolo[3,4-c]pyridine-3-carboxylic acid [2-(4-chloro-phenyl)-ethyl]-amide] | < 1
NC(=O)c1c(NC(=O)CCc2ccc(Cl)cc2)sc2c1CCN(C(=O)c1ccc3[nH]c(=O)oc3c1)C2 [Compound 6, 2-[3-(4-Chloro-phenyl)-propionylamino]-6-(2-oxo-2,3-dihydro-benzooxazole-6-carbonyl)-4,5,6,7-tetrahydro-thieno[2,3-c]pyridine-3-carboxylic acid amide] | < 1
NC(=O)c1c(NC(=O)Nc2ccc(Cl)cc2)sc2c1CCN(Cc1ccncc1)C2 [Compound 20, 2-[3-(4-Chloro-phenyl)-ureido]-6-pyridin-4-ylmethyl-4,5,6,7-tetrahydro-thieno[2,3-c]pyridine-3-carboxylic acid amide] | < 10
O=C(NCc1cc(C(F)(F)F)ccc1F)c1[nH]nc2c1CCN(C(=O)c1ccc3[nH]nnc3c1)C2 [Compound 36, 6-(1H-Benzotriazole-5-carbonyl)-4,5,6,7-tetrahydro-2H-pyrazolo[3,4-c]pyridine-3-carboxylic acid 2-fluoro-5-trifluoromethyl-benzylamide] | < 30
O=C(Cc1ccc(Cl)cc1F)Nc1nc2ccc(C(=O)Nc3ccc4[nH]c(=O)oc4c3)cc2s1 [Compound 29, 2-[2-(4-Chloro-2-fluoro-phenyl)-acetylamino]-benzothiazole-6-carboxylic acid (2-oxo-2,3-dihydro-benzooxazol-6-yl)-amide] | < 10
NC(=O)c1c(NC(=O)Cc2ccc(Cl)cc2)sc2c1CCN(C(=O)c1ccc3[nH]c(=O)oc3c1)C2 [Compound 14, 2-[2-(4-Chloro-phenyl)-acetylamino]-6-(2-oxo-2,3-dihydro-benzooxazole-6-carbonyl)-4,5,6,7-tetrahydro-thieno[2,3-c]pyridine-3-carboxylic acid amide] | < 1
NC(=O)c1c(NC(=O)Cc2ccc(Cl)cc2F)sc2c1CCN(Cc1ccncc1)C2 [Compound 21, 2-[2-(4-Chloro-2-fluoro-phenyl)-acetylamino]-6-pyridin-4-ylmethyl-4,5,6,7-tetrahydro-thieno[2,3-c]pyridine-3-carboxylic acid amide] | < 10

The remaining lines, values ahead:

IC50 [µM] | SMILES
< 30 | O=C(NCc1ccc(OC(F)(F)F)cc1)c1[nH]nc2c1CCN(C(=O)c1ccc3[nH]nnc3c1)C2 [Compound 60, 6-(1H-Benzotriazole-5-carbonyl)-4,5,6,7-tetrahydro-2H-pyrazolo[3,4-c]pyridine-3-carboxylic acid 4-trifluoromethoxy-benzylamide]
< 30 | O=C(NCc1ccc(SC(F)(F)F)cc1)c1[nH]nc2c1CCN(C(=O)c1ccc3[nH]nnc3c1)C2 [Compound 49, 6-(1H-Benzotriazole-5-carbonyl)-4,5,6,7-tetrahydro-2H-pyrazolo[3,4-c]pyridine-3-carboxylic acid 4-trifluoromethylsulfanyl-benzylamide]
< 10 | COc1ccc2c(c1)CCC(NC(=O)c1[nH]nc3c1CCN(C(=O)c1ccc4[nH]nnc4c1)C3)C2 (stereo not drawn) [Compound 62, 6-(1H-Benzotriazole-5-carbonyl)-4,5,6,7-tetrahydro-2H-pyrazolo[3,4-c]pyridine-3-carboxylic acid (6-methoxy-1,2,3,4-tetrahydro-naphthalen-2-yl)-amide]
< 1 | O=C(Nc1ccc2[nH]nnc2c1)c1[nH]nc2c1CCN(C(=O)OCc1cc(Cl)cc(Cl)c1)C2 [Compound 52, 3-(1H-Benzotriazol-5-ylcarbamoyl)-2,4,5,7-tetrahydro-pyrazolo[3,4-c]pyridine-6-carboxylic acid 3,5-dichloro-benzyl ester]
< 30 | COc1ccc(C2CCCN(C(=O)c3[nH]nc4c3CCN(C(=O)c3ccc5[nH]nnc5c3)C4)C2)cc1 (stereo not drawn) [Compound 59, (1H-Benzotriazol-5-yl)-{3-[3-(4-methoxy-phenyl)-piperidine-1-carbonyl]-2,4,5,7-tetrahydro-pyrazolo[3,4-c]pyridin-6-yl}-methanone]
< 10 | O=C(Nc1ccc2[nH]nnc2c1)c1[nH]nc2c1CCN(C(=O)OCc1ccc(OC(F)(F)F)cc1)C2 [Compound 57, 3-(1H-Benzotriazol-5-ylcarbamoyl)-2,4,5,7-tetrahydro-pyrazolo[3,4-c]pyridine-6-carboxylic acid 4-trifluoromethoxy-benzyl ester]
< 1 | O=C(Nc1ccc2[nH]nnc2c1)c1[nH]nc2c1CCN(C(=O)OCc1cc(C(F)(F)F)cc(C(F)(F)F)c1)C2 [Compound 53, 3-(1H-Benzotriazol-5-ylcarbamoyl)-2,4,5,7-tetrahydro-pyrazolo[3,4-c]pyridine-6-carboxylic acid 3,5-bis-trifluoromethyl-benzyl ester]
< 10 | O=C(Nc1ccc2c(c1)CCN(C(=O)c1ccc3[nH]nnc3c1)C2)OCc1cc(Cl)cc(Cl)c1 [Compound 48, [2-(1H-Benzotriazole-5-carbonyl)-1,2,3,4-tetrahydro-isoquinolin-6-yl]-carbamic acid 3,5-dichloro-benzyl ester]
< 10 | COc1ccc(Cl)cc1CNC(=O)c1[nH]nc2c1CCN(C(=O)c1ccc3[nH]nnc3c1)C2 [Compound 45, 6-(1H-Benzotriazole-5-carbonyl)-4,5,6,7-tetrahydro-2H-pyrazolo[3,4-c]pyridine-3-carboxylic acid 5-chloro-2-methoxy-benzylamide]
< 1 | O=C(Nc1ccc2[nH]nnc2c1)c1[nH]nc2c1CCN(C(=O)OCc1cccc(C(F)(F)F)c1)C2 [Compound 55, 3-(1H-Benzotriazol-5-ylcarbamoyl)-2,4,5,7-tetrahydro-pyrazolo[3,4-c]pyridine-6-carboxylic acid 3-trifluoromethyl-benzyl ester]
< 10 | O=C(NCc1ccc(C(F)(F)F)cc1)c1[nH]nc2c1CCN(C(=O)c1ccc3[nH]nnc3c1)C2 [Compound 61, 6-(1H-Benzotriazole-5-carbonyl)-4,5,6,7-tetrahydro-2H-pyrazolo[3,4-c]pyridine-3-carboxylic acid 4-trifluoromethyl-benzylamide]
